Measured values reported in US8163909B2, “Substituted hydroxyethyl amine compounds as beta-secretase modulators and methods of use” (Amgen Inc., priority 2007, dated 2012).
Where two headings read alike, the source gives them in different places.

Legend:
[1] = target: Beta Secretase enzyme (BACE) (Homo sapiens, UniProt P56817); assay: In vitro enzymatic BACE FRET (fluorescence resonance energy transfer) assay; format: biochemical;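 note: fluorescence read after 1 h with 50 nM quenched peptide substrate spanning the BACE cleavage site, in pH 4.2 acetate buffer containing 10% DMSO and nonionic detergent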
Sequence of Beta Secretase enzyme (BACE) (P56817 46-501): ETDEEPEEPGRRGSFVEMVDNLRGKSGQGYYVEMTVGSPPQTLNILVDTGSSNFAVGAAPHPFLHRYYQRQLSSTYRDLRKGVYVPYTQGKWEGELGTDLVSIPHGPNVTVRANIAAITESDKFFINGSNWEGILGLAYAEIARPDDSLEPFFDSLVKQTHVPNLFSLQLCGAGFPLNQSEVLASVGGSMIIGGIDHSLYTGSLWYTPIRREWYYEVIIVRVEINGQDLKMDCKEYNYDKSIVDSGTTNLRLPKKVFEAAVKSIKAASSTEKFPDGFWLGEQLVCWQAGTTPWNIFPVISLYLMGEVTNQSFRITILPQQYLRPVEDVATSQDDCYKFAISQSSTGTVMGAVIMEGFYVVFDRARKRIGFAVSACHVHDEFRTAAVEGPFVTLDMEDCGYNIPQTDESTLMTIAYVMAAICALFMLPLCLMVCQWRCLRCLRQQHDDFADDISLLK

[2] = test system: Aβ40 in conditioned medium of cells stably expressing Amyloid Precursor Protein (APP); assay: In vitro BACE cell-based assay (Aβ40 in conditioned medium, sandwich ELISA); conditions: Homo sapiens;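 note: compounds added as a dilution series, secreted peptide quantified by europium time-resolved fluorescence readout, potency fitted from percent of control versus compound concentration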
CYP3A4 (CYP3A) = CYP3A4 (CYP3A) (Homo sapiens, UniProt P08684); assay: in vitro; conditions: microsomes, pH 7.4;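 note: inhibition of CYP3A-mediated 1-hydroxymidazolam formation after 10 min incubation with NADPH, quantified by HPLC MS relative to metabolite produced without test compound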
Sequence of CYP3A4 (CYP3A) (P08684 2-503): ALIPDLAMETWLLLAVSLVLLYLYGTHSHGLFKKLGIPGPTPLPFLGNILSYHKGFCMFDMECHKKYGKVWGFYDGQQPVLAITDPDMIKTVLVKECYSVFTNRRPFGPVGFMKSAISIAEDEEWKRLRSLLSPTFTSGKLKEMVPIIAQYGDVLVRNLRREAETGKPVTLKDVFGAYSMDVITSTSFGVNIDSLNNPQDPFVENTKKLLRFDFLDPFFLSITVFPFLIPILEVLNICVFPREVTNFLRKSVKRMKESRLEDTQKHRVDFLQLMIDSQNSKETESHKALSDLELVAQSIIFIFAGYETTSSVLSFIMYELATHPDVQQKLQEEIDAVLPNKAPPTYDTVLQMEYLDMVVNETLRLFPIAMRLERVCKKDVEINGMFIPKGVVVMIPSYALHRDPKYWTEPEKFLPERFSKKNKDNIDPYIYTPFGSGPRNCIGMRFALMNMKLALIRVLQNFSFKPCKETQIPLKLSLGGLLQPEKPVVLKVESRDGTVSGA

[3] = Microsomal stability assay, rat liver microsomes;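 note: rat liver microsomes (0.25 mg/mL) with about 1 µM compound plus 1 mM NADPH, pH 7.4, 37 °C for 30 min, parent left measured by LC-MS/MS against 0 min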
[4] = Microsomal stability assay, human liver microsomes;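 note: pooled human liver microsomes at 0.25 mg/mL with 1 µM compound and NADPH at 37 °C, pH 7.4, for 30 min, unchanged parent quantified by LC-MS/MS against the 0 min sample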
CYP2D6 = CYP2D6 (Homo sapiens, UniProt P10635); assay: CYP2D6 inhibition assay (bufuralol, pooled human liver microsomes)
Sequence of CYP2D6 (P10635 whole entry): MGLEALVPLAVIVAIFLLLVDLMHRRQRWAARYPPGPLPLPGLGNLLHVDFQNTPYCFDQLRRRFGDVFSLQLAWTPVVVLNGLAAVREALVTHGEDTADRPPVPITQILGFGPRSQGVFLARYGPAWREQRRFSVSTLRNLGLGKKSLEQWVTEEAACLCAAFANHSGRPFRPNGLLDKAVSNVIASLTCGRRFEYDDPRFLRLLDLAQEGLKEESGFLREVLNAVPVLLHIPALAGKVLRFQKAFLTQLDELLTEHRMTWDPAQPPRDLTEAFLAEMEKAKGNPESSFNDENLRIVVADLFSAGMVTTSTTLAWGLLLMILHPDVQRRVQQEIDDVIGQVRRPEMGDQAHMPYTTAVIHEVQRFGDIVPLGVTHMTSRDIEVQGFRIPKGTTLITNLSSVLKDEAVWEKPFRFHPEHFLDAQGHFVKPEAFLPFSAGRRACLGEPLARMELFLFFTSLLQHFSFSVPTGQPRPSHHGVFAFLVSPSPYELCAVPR

[5] = BACE enzyme assay, IC50's in uM, read-out: BACE1 FRET assay
[6] = 2D6 IC50, CYP enzyme inhibition
[7] = BACE enzyme assay IC50, read-out: BACE1 FRET assay
[8] = HEK293, HEK cell-based assay IC50, read-out: HEK cell assay
[9] = 2D6 IC50 (uM), CYP2D6 inhibition
[10] = BACE enzyme assay, read-out: BACE1 FRET assay
[11] = HEK293, HEK cells, read-out: HEK cell assay
[12] = 2D6 IC50 (uM), CYP enzyme inhibition
[13] = HEK293, HEK cell-based assay, IC50's in uM, read-out: HEK cell assay
[14] = read-out: BACE1 FRET assay (IC50)
[15] = HEK293, HEK cells, read-out: HEK cell assay (IC50)

| Compound | IC50 (CYP3A4 (CYP3A)) [µM] | RLM ([3]; rat liver microsomal data) [µL/min/mg] | HLM ([4]; human liver microsomal data) [µL/min/mg] | RLM ([3]; rat liver microsomes) [µL/min/mg] | HLM ([4]; human liver microsomes) [µL/min/mg] | IC50 [1, 10] [µM] | IC50 [2, 11] [µM] | IC50 (CYP2D6; [12]) [µM] | also measured |
| --- | --- | --- | --- | --- | --- | --- | --- | --- | --- |
| C#Cc1cc(F)cc(C[C@H](NC(=O)COC)[C@H](O)CN[C@H]2CC3(CCC3)Oc3ncc(CC(C)C)cc32)c1 [Example 856, N-((1S,2R)-1-(3-ethynyl-5-fluorobenzyl)-2-hydroxy-3-(((4′S)-6′-(2-methylpropyl)-3′,4′-dihydrospiro[cyclobutane-1,2′-pyrano[2,3-b]pyridin]-4′-yl)amino)propyl)-2-methoxyacetamide] | 0.15 | 78 | 63 |  |  |  |  |  | IC50 [1, 5]: 0.002 µM; IC50 ([2]; HEK293, cell-based assay, HEK cells, IC50's in uM, read-out: HEK cell assay): 0.009 µM; IC50 (CYP2D6; [6]): 1 µM |
| CC(=O)N[C@@H](Cc1cc(F)cc(-c2cscn2)c1)[C@H](O)CN[C@H]1CC2(CCC2)Oc2ncc(CC(C)(C)C)cc21 [compound 672] | 0.4 |  |  | 134 | 358 |  |  |  | IC50 [1, 7]: 0.004 µM; IC50 [2, 8]: 0.005 µM; IC50 (CYP2D6; [9]): 2.7 µM |
| COCC(=O)N[C@@H](Cc1ccc(F)cc1)[C@H](O)CN[C@@H]1CC2(CCC2)Oc2c1cc(CC(C)(C)C)nc2C#N [compound 492] | 0.4 | 190 | 94 |  |  | 5.04 | 0.462 | 8.2 |  |
| COCC(=O)N[C@@H](Cc1cccc(Br)c1)[C@H](O)CN[C@H]1CC2(CCC2)Oc2ncc(CC(C)C)cc21 [compound 800] | 0.2 | 459 | 921 |  |  |  |  | 1.4 | IC50 [1, 5]: 0.004 µM; IC50 [2, 13]: 0.013 µM |
| CO[C@H](C)C(=O)N[C@@H](Cc1cccc(F)c1)[C@H](O)CN[C@H]1CC2(CCC2)Oc2c1cc(CC(C)(C)C)nc2-n1ccnc1 [compound 507] | 0.1 | 95 | 14 |  |  | 0.022 | 0.057 | 1.9 |  |
| CO[C@H](C)C(=O)N[C@@H](Cc1cc(F)cc(F)c1)[C@H](O)CN[C@H]1CC2(CCC2)Oc2c1cc(CC(C)C)nc2-c1nccn1C [compound 704] | ≤ 0.03 |  |  | 44 | 20 |  |  |  | IC50 [1, 7]: 0.03 µM; IC50 [2, 8]: 0.024 µM; IC50 (CYP2D6; [9]): ≥ 27 µM |
| COCC(=O)N[C@@H](Cc1ccccc1)[C@H](O)CN[C@H]1CC2(CCC2)Oc2c1cc(CC(C)C)cc2-n1ccnc1 [compound 546] | 0.1 | 267 | 75 |  |  | 0.025 | 0.033 | 3.8 |  |
| CO[C@H](C)C(=O)N[C@@H](Cc1cccc(F)c1)[C@H](O)CN[C@H]1CC2(CCC2)Oc2c(Br)cc(CC(C)C)cc21 [compound 515] | 1.3 | 399 | 775 |  |  | 0.003 | 0.125 | 9.4 |  |
| CO[C@H](C)C(=O)N[C@@H](Cc1ccc2c(c1)OCO2)[C@H](O)CN[C@H]1CC2(CCC2)Oc2ccc(C[C@H](C)F)cc21 [compound 555] | 0.4 | 543 | 269 |  |  | 3.42 | > 10 | 0.9 |  |
| COCC(=O)N[C@@H](Cc1cccc(-c2ncc(C)s2)c1)[C@H](O)CN[C@H]1CC2(CCC2)Oc2ncc(CC(C)(C)C)cc21 [compound 759, N-((1S,2R)-3-(((4′S)-6′-(2,2-dimethylpropyl)-3′,4′-dihydrospiro[cyclobutane-1,2′-pyrano[2,3-b]pyridin]-4′-yl)amino)-2-hydroxy-1-(3-(5-methyl-1,3-thiazol-2-yl)benzyl)propyl)-2-methoxyacetamide] | 0.3 | 399 | 436 |  |  |  |  | 1.5 | IC50 [1, 5]: 0.021 µM; IC50 [2, 13]: 0.071 µM |
| Cc1cccc(CN2CCO[C@@H](C(=O)N[C@@H](Cc3ccc(F)cc3)[C@H](O)CN[C@H]3CC4(CCC4)Oc4ncc(CC(C)(C)C)cc43)C2)c1 [compound 685] | 0.2 |  |  | 283 | 662 |  |  |  | IC50 [1, 7]: 0.013 µM; IC50 [2, 8]: 0.012 µM; IC50 (CYP2D6; [9]): 3.1 µM |
| CO[C@H](C)C(=O)N[C@@H](Cc1ccccc1)[C@H](O)CN[C@H]1CC2(CCC2)Oc2c(Br)cc(CC(C)C)cc21 [compound 545] | 1.1 | 775 | 775 |  |  | 0.007 | 1.49 | 8.2 |  |
| COCC(=O)N[C@@H](Cc1ccc(F)c(F)c1)[C@H](O)CN[C@H]1CC(C)(C)Oc2ncc(CC(C)(C)C)cc21 [compound 676] | 2 |  |  | 411 | 463 |  |  |  | IC50 [1, 7]: 0.01 µM; IC50 [2, 8]: 0.011 µM; IC50 (CYP2D6; [9]): 2.9 µM |
| COCC(=O)N[C@@H](Cc1cccc(F)c1)[C@H](O)CN[C@H]1CC2(CCC2)Oc2ccc(C[C@@H](C)F)cc21 [compound 559] | 7.1 | 829 | 706 |  |  | 0.027 | 0.038 | 1.1 |  |
| CC(=O)N[C@@H](Cc1ccc(F)c(-c2ccncc2)c1)[C@H](O)CN[C@H]1CC2(CCC2)Oc2ccc(CC(C)(C)C)cc21 [compound 625] | 0.16 |  |  | 330 | 389 |  |  |  | IC50 [1, 14]: 0.042 µM; IC50 [2, 15]: 0.057 µM; IC50 (CYP2D6; 2D6 IC50, CYP2D6 inhibition): 0.2 µM |
| COCC(=O)N[C@@H](Cc1ccc2c(c1)OCO2)[C@H](O)CN[C@H]1CC2(CCC2)Oc2c1cc(CC(C)C)nc2Cl [compound 656] | 0.1 |  |  | 180 | 131 |  |  |  | IC50 [1, 14]: 0.051 µM; IC50 [2, 15]: 0.774 µM; IC50 (CYP2D6; 2D6 IC50, CYP2D6 inhibition): 5.3 µM |
| CC(=O)N[C@@H](Cc1ccc(F)c(-c2cccnc2)c1)[C@H](O)CN[C@H]1CC2(CCC2)Oc2ccc(CC(C)(C)C)cc21 [compound 648] | 0.1 |  |  | 560 | 551 |  |  |  | IC50 [1, 14]: 0.008 µM; IC50 [2, 15]: 0.045 µM; IC50 (CYP2D6; 2D6 IC50, CYP2D6 inhibition): 0.4 µM |
| CC(=O)N[C@@H](Cc1ccc(F)c(-c2ccco2)c1)[C@H](O)CN[C@H]1CC2(CCC2)Oc2ccc(CC(C)(C)C)cc21 [Example 432, N-((2S,3R)-4-((S)-2,2-spirocyclobutyl-6-neopentyl-3,4-dihydro-2H-chromen-4-ylamino)-1-(4-fluoro-3-(furan-2-yl)phenyl)-3-hydroxybutan-2-yl)acetamide] | 1.5 |  |  | 323 | 280 |  |  |  | IC50 [1, 14]: 0.006 µM; IC50 [2, 15]: 0.332 µM; IC50 (CYP2D6; 2D6 IC50, CYP2D6 inhibition): 3.1 µM |
| COCC(=O)N[C@@H](C[C@@H]1CCOC1)[C@H](O)CN[C@H]1CC2(CCC2)Oc2ncc(CC(C)(C)C)cc21 [compound 462] | 8.5 | 68 | 107 |  |  |  |  |  | IC50 ([1]; Table 2, read-out: BACE1 FRET assay): 0.432 µM; IC50 ([2]; HEK293, Table 2, HEK cells, read-out: HEK cell assay): 0.649 µM; IC50 (CYP2D6; [6]): 16.9 µM |
| CC(=O)N[C@@H](Cc1ccc(-c2cscn2)cc1)[C@H](O)CN[C@H]1CC2(CCC2)Oc2ncc(CC(C)(C)C)cc21 [compound 693] | 0.2 |  |  | 63 | 110 |  |  |  | IC50 [1, 7]: 0.043 µM; IC50 [2, 8]: 0.06 µM; IC50 (CYP2D6; [9]): 2.9 µM |
